Results published in patent publication US10080365B2, “Use of strobilurin type compounds for combating phytopathogenic fungi resistant to Qo inhibitors” (BASF SE, priority 2011, dated 2018).

Legend:
[1] = test system: Septoria tritici (Qo-inhibitor-resistant, G143A mutant); assay: Microtiter test, Septoria tritici Qo-inhibitor-resistant G143A mutant (Use Example 1); format: cell-based; details: for IC50: microtiter test, Qo-inhibitor-resistant G143A mutant, turbidity at 620 nm, read-out: Resistant Septoria tritici isolate (G143A mutation) (R-IC50); for Resistance factor RF = R-IC50/S-IC50: ratio of IC50 for G143A resistant isolate to IC50 for wild-type sensitive isolate
Procedure: (§1) The active substances were formulated separately as a stock solution in dimethyl sulfoxide (DMSO) at a concentration of 10 000 ppm.
(§2) Activity against the Septoria blotch pathogen caused by Septoria tritici in the microtiter test
(§3) Fungal strains used: • a) Septoria tritici (Qo-inhibitor sensitive, wild-type) • b) Septoria tritici (Qo-inhibitor-resistant, G143A mutant)
(§4) 100 ml 2% Malt extract in water at pH6.8 were inoculated with microspores from 2 week old cultures grown on 2% malt extract+2% agar in Petri dishes and incubated for 3 days on a rotary shaker at 24° C. und 150 rpm. The culture was harvested, glycerol was added (15% (v/v) and kept frozen at −20° C. in aliquots of 1 ml.
(§5) 1 ml stock suspension was thawed and suspended into 800 ml of 2% malt extract in water at pH 6.8. Compounds were diluted from stock solution in (dimethylsulfoxide) DMSO in 10 steps. The compound solutions were diluted 1/5 with sterile deionized water before use. 5 μl of the compound solutions were transferred into empty microplates. The plates were then filled with 195 μl of the microspore suspension of each strain.
(§6) The antifungal activity was determined by measuring the turbidity of a culture in 96-well microplates in the presence of test compounds. Fungal growth was measured by recording the optical density at 620 nm every 15 h for 150 h. The relative antifungal activity was calculated by comparison of the effect of the test compounds with the effect of a DMSO control and a standard fungicide.
(§7) IC50-values (concentration of test compound resulting in 50% inhibition of fungal growth) were calculated from the resulting dose-response for each compound and strain. The initial concentration of the test compounds and the 10 steps of dilution (1:4 each) allowed IC50-values from 0.001 to 100 μmol/l (μM) to be assessed.

[2] = test system: Septoria tritici (Qo-inhibitor sensitive, wild-type); assay: Microtiter test, Septoria tritici Qo-inhibitor sensitive wild-type (Use Example 1); format: cell-based; details: turbidity at 620 nm, read-out: Sensitive Septoria tritici isolate (wild type) (S-IC50)
Procedure: as §1, §2, §3, §4, §5, §6, §7

| Compound | IC50 [1] [µM] | IC50 [2] [µM] | Resistance factor RF = R-IC50/S-IC50 [1] |
| --- | --- | --- | --- |
| CO/C=C(/C(=O)OC)c1ccccc1Oc1cc(Oc2ccccc2C#N)ncn1 [Azoxystrobin, reference compound] | > 100 | 3.5 |  |
| CON=C(C(=O)OC)C(C)=CCOc1ccn(-c2ccc(Cl)cc2)n1 [Compound I-5] | 2.2 | 0.083 | 26 |
| C=CCON=C(C)c1cc(C)c(OCC=C(C)C(=NOC)C(=O)NC)cc1C [Compound I-82] | 6.8 | 1.1 | 6 |
| C=CCON=C(C)c1ccc(OCC=C(C)C(=NOC)C(=O)NC)c(C)c1 [Compound I-83] | 7.6 | 1.6 | 4.6 |
| C=C(Cl)CON=C(C)c1cc(C)c(OCC=C(C)C(=NOC)C(=O)NC)cc1C [Compound I-84] | 16.1 | 0.5 | 33 |
| C=C(Cl)CON=C(C)c1ccc(OCC=C(C)C(=NOC)C(=O)NC)c(C)c1 [Compound I-85] | 22 | 0.8 | 29 |
| CC=CCON=C(C)c1cc(C)c(OCC=C(C)C(=NOC)C(=O)NC)cc1C [Compound I-90] | 26 | 1 | 26 |
| CC=CCON=C(C)c1ccc(OCC=C(C)C(=NOC)C(=O)NC)c(C)c1 [Compound I-91] | 27 | 1.6 | 17 |
| C=CCON=C(C)c1cc(C)c(OCC=C(C)C(=NOC)C(=O)OC)cc1C [Compound I-94] | 12 | 0.6 | 22 |
| C=CCON=C(C)c1ccc(OCC=C(C)C(=NOC)C(=O)OC)c(C)c1 [Compound I-95] | 29 | 2.2 | 14 |
| C=C(Cl)CON=C(C)c1ccc(OCC=C(C)C(=NOC)C(=O)OC)c(C)c1 [Compound I-97] | 49 | 1.7 | 29 |
| CCON=C(C)c1ccc(OCC=C(C)C(=NOC)C(=O)OC)c(C)c1 [Compound I-191] | 37 | 1.3 | 29 |
| Cc1cc(-n2cccn2)ccc1OCc1ccccc1-n1nnn(C)c1=O [Compound I-212] | 8.3 | 1.4 | 6 |
| CC(=NOCc1ccccc1-n1nnn(C)c1=O)c1cccc(-c2cnn(-c3ccccc3)c2)c1 [Compound I-213] | 0.057 | 0.076 | 0.7 |
| C/C(=N\OC/C=C/Cl)c1ccc(OCc2ccccc2-n2nnn(C)c2=O)c(C)c1 [Compound I-217] | 63 | 6.3 | 10 |
| C=CCO/N=C(\C)c1ccc(OCc2ccccc2-n2nnn(C)c2=O)c(C)c1 [Compound I-218] | 79 | 5.6 | 14 |
| C#CCO/N=C(\C)c1ccc(OCc2ccccc2-n2nnn(C)c2=O)c(C)c1 [Compound I-221] | 10 | 3.4 | 3 |
| C/C(=N\OC/C=C/Cl)c1cc(C)c(OCc2ccccc2-n2nnn(C)c2=O)cc1C [Compound I-223] | 19 | 2.7 | 7 |
| C=CCO/N=C(\C)c1cc(C)c(OCc2ccccc2-n2nnn(C)c2=O)cc1C [Compound I-224] | 5.4 | 1.7 | 3.2 |
| C/C=C/CO/N=C(\C)c1cc(C)c(OCc2ccccc2-n2nnn(C)c2=O)cc1C [Compound I-225] | 72 | 3.4 | 21 |
| C/C(=N\OC/C=C\Cl)c1cc(C)c(OCc2ccccc2-n2nnn(C)c2=O)cc1C [Compound I-228] | 10 | 3.4 | 3.0 |
| CC(Cc1ccc(Cl)cc1)=NOCc1ccccc1-n1nnn(C)c1=O [Compound I-230] | 25 | 3.2 | 8 |
| CO/N=C(\C)c1ccc(OCc2ccccc2-n2nnn(C)c2=O)c(C)c1 [Compound I-233] | 2.7 | 0.24 | 12 |
| CCC/C(=N\OC)c1cc(C)c(OCc2ccccc2-n2nnn(C)c2=O)cc1C [Compound I-234] | 4 | 2.4 | 1.7 |

| Compound | IC50 [1] [µM] | IC50 [2] [µM] | Resistance factor RF = R-IC50/S-IC50 [1] |
| --- | --- | --- | --- |
| CCC/C(=N\OC)c1ccc(OCc2ccccc2-n2nnn(C)c2=O)c(C)c1 [Compound I-235] | 51 | 13 | 4 |
| CCON=C(c1ccc(OCc2ccccc2-n2nnn(C)c2=O)c(C)c1)C1CC1 [Compound I-236] | 24 | 6 | 4 |
| CCON=C(CC)c1ccc(OCc2ccccc2-n2nnn(C)c2=O)c(C)c1 [Compound I-238] | 12 | 6 | 1.9 |
| Cn1nnn(-c2ccccc2COc2nn(-c3ccc(Cl)cc3)cc2Cl)c1=O [Compound I-243] | 15 | 4.1 | 3.6 |
| Cc1cn(-c2ccc(Cl)cc2)nc1OCc1ccccc1-n1nnn(C)c1=O [Compound I-244] | 1.3 | 0.6 | 2.0 |
| Cn1nnn(-c2ccccc2COc2ccn(-c3cccc(C(F)(F)F)c3)n2)c1=O [Compound I-247] | 9 | 5 | 1.9 |
| CCON=C(C)c1ccc(OCc2ccccc2-n2nnn(C)c2=O)c(C)c1 [Compound I-249] | 11 | 2.4 | 5 |
| CCCC(=NOCC)c1cc(C)c(OCc2ccccc2-n2nnn(C)c2=O)cc1C [Compound I-250] | 97 | 19 | 5 |
| CCON=C(C)c1cc(C)c(OCc2ccccc2-n2nnn(CC)c2=O)cc1C [Compound I-255] | 42 | 19 | 2.2 |
| CCC(=NOC)c1ccc(OCc2ccccc2-n2nnn(CC)c2=O)c(C)c1 [Compound I-256] | 24 | 21 | 1.1 |
| CCn1nnn(-c2ccccc2COc2cc(C)c(C(C)=NOC)cc2C)c1=O [Compound I-257] | 67 | 15 | 4.5 |
| Cc1ccc(-n2cc(C)c(OCc3ccccc3-n3nnn(C)c3=O)n2)cc1 [Compound I-260] | 3.3 | 2.3 | 1.4 |
| CCc1ccc(-n2cc(C)c(OCc3ccccc3-n3nnn(C)c3=O)n2)cc1 [Compound I-261] | 5 | 2.9 | 1.6 |
| Cc1ccc(-n2cc(C)c(OCc3ccccc3-n3nnn(C)c3=O)n2)cc1C [Compound I-262] | 1.6 | 1 | 1.6 |
| Cc1ccc(-n2cc(C)c(OCc3ccccc3-n3nnn(C)c3=O)n2)c(C)c1 [Compound I-265] | 4 | 3.8 | 1.1 |
| Cc1cc(-c2cnco2)c(C)cc1OCc1ccccc1-n1nnn(C)c1=O [Compound I-267] | 5 | 2.9 | 1.7 |
| Cc1cc(-c2c(C)noc2C)c(C)cc1OCc1ccccc1-n1nnn(C)c1=O [Compound I-269] | 74 | 8 | 10 |
| Cc1ncc(-c2cc(C)c(OCc3ccccc3-n3nnn(C)c3=O)cc2C)o1 [Compound I-270] | 57 | 6 | 10 |
| Cc1cc(-c2cnoc2)c(C)cc1OCc1ccccc1-n1nnn(C)c1=O [Compound I-271] | 7 | 1.9 | 3.9 |
| Cc1c(OCc2ccccc2-n2nnn(C)c2=O)nn2c(C3CC3)cc(C3CC3)nc12 [Compound I-273] | 22 | 5 | 4 |
| CC(=NOCc1ccccc1-n1nnn(C)c1=O)C(=O)c1ccc(C)c(C)c1 [Compound I-274] | 19 | 9 | 2.0 |
| CCC(=CCOc1ccn(-c2ccc(Cl)cc2)n1)C(=NOC)C(=O)NC [Compound I-287] | 18 | 1.5 | 12 |
| CNC(=O)C(=NOC)C(C)=CCOc1ncn(-c2ccc(Cl)cc2)n1 [Compound I-288] | 28 | 3.5 | 8.0 |
